The source of these data is patent US20220177476A1, “Crystal Forms of (S)-4-(8-amino-3-(1-(but-2-ynoyl)-pyrrolidin-2-yl)imidazo[1,5-a]pyrazin-1-yl)-n-(pyridin-2-yl)benzamide” (Acerta Pharma B.V., priority 2015, published 2022).

A short description of data set [1]: Relative stability of solid forms (water activity, suspension equilibration, storage). The data set is classed as physicochemical. Conditions: for Stability at Room Temperature: crystalline forms of the free base. The text has this: Critical water activity is a measure of the relative thermodynamic stability of Form I in comparison to the trihydrate Form II. […] Suspension equilibration experiments in ethanol-water mixtures, each having a different water activity, affirmed this conclusion. Water activities included in the experiments were maintained at: about 0.35 (ethanol-water ratio of 95:5, PP502-P32), about 0.53 (ethanol-water ratio of 9:1, PP502-P33) and about 0.77 (ethanol-water ratio of 7:3, PP502-P34).
Because the DVS results of Form II indicate reversible moisture sorption-desorption behavior (see above), tests were performed to confirm that storage of the dehydrated Form II sample (i.e., Form IV) at about 60% RH would again lead to the trihydrate form (Form II). […]

The nature of data set [2]: Dynamic vapor sorption (DVS). The data set is classed as physicochemical. Conditions: DVS; for water content at the end of the DVS test: by weight; for hygroscopicity according to the European Pharmacopoeia (EP) classification: weight increase at 80% RH. As to the method: A gravimetric vapor sorption study was run using a standard procedure. Samples were run using a dynamic vapor sorption (DVS) analyzer. Sample sizes were approximately 10 mg. A moisture adsorption-desorption isotherm was performed as outlined below.

Regarding `CC#CC(=O)N1CCC[C@H]1c1nc(-c2ccc(C(=O)Nc3ccccn3)cc2)c2c(N)nccn12` [Form VII, (S)-4-(8-amino-3-(1-(but-2-ynoyl)pyrrolidin-2-yl)imidazo[1,5-α]pyrazin-1-yl)-N-(pyridin-2-yl)benzamide], the “Stability at Room Temperature” value in data set [1] is “metastable”. The same measure, in the same setting: the result for `CC#CC(=O)N1CCC[C@H]1c1nc(-c2ccc(C(=O)Nc3ccccn3)cc2)c2c(N)nccn12` [Form VIII, (S)-4-(8-amino-3-(1-(but-2-ynoyl)pyrrolidin-2-yl)imidazo[1,5-α]pyrazin-1-yl)-N-(pyridin-2-yl)benzamide] reads “metastable”. With `CC#CC(=O)N1CCC[C@H]1c1nc(-c2ccc(C(=O)Nc3ccccn3)cc2)c2c(N)nccn12` [Form IV, (S)-4-(8-amino-3-(1-(but-2-ynoyl)pyrrolidin-2-yl)imidazo[1,5-α]pyrazin-1-yl)-N-(pyridin-2-yl)benzamide], the “Stability at Room Temperature” value in data set [1] was “metastable”. Further, the “form after storage at 60% RH for three days (PXRD)” value in data set [1] (dehydrated Form II sample) is on record as “does revert to Form II”.

`CC#CC(=O)N1CCC[C@H]1c1nc(-c2ccc(C(=O)Nc3ccccn3)cc2)c2c(N)nccn12.O=C(O)CC(O)(CC(=O)O)C(=O)O` [citrate salt, (S)-4-(8-amino-3-(1-(but-2-ynoyl)pyrrolidin-2-yl)imidazo[1,5-α]pyrazin-1-yl)-N-(pyridin-2-yl)benzamide citrate]: the “water content at the end of the DVS test” value in data set [2] is listed as “about 7.5%”. For the same compound, the “form after suspension equilibration in water” value in data set [1] (water at 25° C. for 24 hours) is “conversion to Form III of the free base of Formula (1)”.

`CC#CC(=O)N1CCC[C@H]1c1nc(-c2ccc(C(=O)Nc3ccccn3)cc2)c2c(N)nccn12` [amorphous Formula (1), (S)-4-(8-amino-3-(1-(but-2-ynoyl)pyrrolidin-2-yl)imidazo[1,5-α]pyrazin-1-yl)-N-(pyridin-2-yl)benzamide]: in data set [2], the “total mass gained up to 95% RH” value is reported as “approximately 13%”; the “total weight gain observed between 0% RH and 80% RH” value is reported as “about 6%”; the “hygroscopicity according to the European Pharmacopoeia (EP) classification” value was “hygroscopic (hygroscopic: ≥2% and <15%)”. For the compound `CC#CC(=O)N1CCC[C@H]1c1nc(-c2ccc(C(=O)Nc3ccccn3)cc2)c2c(N)nccn12.O=C(O)c1cc(O)ccc1O` [gentisate salt, (S)-4-(8-amino-3-(1-(but-2-ynoyl)pyrrolidin-2-yl)imidazo[1,5-α]pyrazin-1-yl)-N-(pyridin-2-yl)benzamide gentisate], the “water content at the end of the DVS test” value in data set [2] is 5.2%.

Turning to `CC#CC(=O)N1CCC[C@H]1c1nc(-c2ccc(C(=O)Nc3ccccn3)cc2)c2c(N)nccn12` [Form V, (S)-4-(8-amino-3-(1-(but-2-ynoyl)pyrrolidin-2-yl)imidazo[1,5-α]pyrazin-1-yl)-N-(pyridin-2-yl)benzamide], the “Stability at Room Temperature” value in data set [1] is “metastable”. On the same count and under the same terms, then `CC#CC(=O)N1CCC[C@H]1c1nc(-c2ccc(C(=O)Nc3ccccn3)cc2)c2c(N)nccn12` [Form VI, (S)-4-(8-amino-3-(1-(but-2-ynoyl)pyrrolidin-2-yl)imidazo[1,5-α]pyrazin-1-yl)-N-(pyridin-2-yl)benzamide], with “metastable”. Consider `CC#CC(=O)N1CCC[C@H]1c1nc(-c2ccc(C(=O)Nc3ccccn3)cc2)c2c(N)nccn12.O=C(O)C(=O)O` [oxalate salt, (S)-4-(8-amino-3-(1-(but-2-ynoyl)pyrrolidin-2-yl)imidazo[1,5-α]pyrazin-1-yl)-N-(pyridin-2-yl)benzamide oxalate], for which, in data set [2], the “maximum water content (saturation) at about 95% RH” value is “about 6.5%” and the “water content at 50% RH” value is on record as “about 5.5%”. Consider `CC#CC(=O)N1CCC[C@H]1c1nc(-c2ccc(C(=O)Nc3ccccn3)cc2)c2c(N)nccn12` [Form III, (S)-4-(8-amino-3-(1-(but-2-ynoyl)pyrrolidin-2-yl)imidazo[1,5-α]pyrazin-1-yl)-N-(pyridin-2-yl)benzamide], for which, in data set [2], the “maximum water content (saturation) at about 95% RH” value is listed as “about 8.5%”; the “total weight gain observed between 0% RH and 80% RH” value is given as “about 8%”; the “hygroscopicity according to the European Pharmacopoeia (EP) classification” value was “hygroscopic (hygroscopic: ≥2% and <15%)”. Moreover, the “Stability at Room Temperature” value in data set [1] is “metastable”.
